Test results published in patent US12649746B2, “Ketorolaco derivative, pharmaceutical composition and preparation method therefor and use thereof” (NANJING HERON PHARMACEUTICAL SCIENCE AND TECHNOLOGY CO., …, priority 2020, dated 2026).

Test: Stability study of levorotatory enantiomer of compounds in solvent (MCT)
Format: physicochemical
Conditions: MCT solution, 5° C., Day 5
Protocol: 2. Test method: the samples were prepared according to Table 2, wherein each sample was dispensed into 10 vials according to the lofting volume, and the samples were lofted according to Table 3.
4. The related substance was determined according to high performance liquid chromatography (General Chapter 0512, China Pharmacopoeia, 2015 Edition).
(1) Chromatographic conditions: the chromatography column was Agilent ZORBAX SB-C8, 4.6 mm×250 mm, 5 μm, and 0.1% phosphoric acid solution-acetonitrile (50:50) was used as a mobile phase; the detection wavelength was […]; the flow rate was 1.0 mL/min; the column temperature was 40° C., and linear gradient elution was performed according to the following table;
(§1) (2) Determination method: an appropriate amount of the product was weighed precisely, a diluent (absolute ethanol) was added and shaken to dissolve, and quantitatively diluted to give a solution containing 0.4 mg per 1 mL, the solution was […] by vortex for 30 s, and filtered with PTFE filter membrane (0.22 μm, JINTENG), and the filtrate was collected as a test sample solution. 10 μL of the solution was weighed precisely and injected into a liquid chromatograph, and a chromatogram was recorded; if an impurity peak existed in the chromatogram of the test sample solution, calculation was performed according to a peak area normalization method to give the target product.
5. Isomer determination was performed according to high performance liquid chromatography (General Chapter 0512, China Pharmacopoeia, 2015 Edition).
(1) Chromatographic conditions: cellulose-tris(3,5-dimethylphenylcarbamate)silica gel was used as filler (Chiralcel OD-H, 250×4.6 mm, 5 μm); n-hexane-isopropanol (90:10) was used as a mobile phase, and isocratic elution was performed for 25 min at a flow rate of 1.0 mL/min; the column temperature was 35° C.; the detection wavelength was 310 nm.
as §1, with “(n-hexane-isopropanol (90:10))” for “(absolute ethanol)”, “about 1.0” for “0.4”, “20” for “10”, “isomer” for “impurity”

Row | Ketorolac (%) | Purity (%) | SMILES
1 | 0.2% | 99.08% | CC(C)OC(=O)OC(C)OC(=O)[C@H]1CCn2c(C(=O)c3ccccc3)ccc21 (stereo partly drawn) [N2(S)]
2 | 0.02% | 99.62% | CCOC(=O)OC(C)OC(=O)[C@H]1CCn2c(C(=O)c3ccccc3)ccc21 (stereo partly drawn) [N12(S)]

Same assay, conditions: MCT solution, 5° C., Day 15

Row | Ketorolac (%) | Purity (%) | SMILES
3 | 0.14% | 99.18% | CC(C)OC(=O)OC(C)OC(=O)[C@H]1CCn2c(C(=O)c3ccccc3)ccc21 (stereo partly drawn) [N2(S)]
4 | 0.02% | 99.64% | CCOC(=O)OC(C)OC(=O)[C@H]1CCn2c(C(=O)c3ccccc3)ccc21 (stereo partly drawn) [N12(S)]

Same assay, conditions: MCT solution, 5° C., Day 30

Row | Ketorolac (%) | Purity (%) | SMILES
5 | 0.25% | 99.01% | CC(C)OC(=O)OC(C)OC(=O)[C@H]1CCn2c(C(=O)c3ccccc3)ccc21 (stereo partly drawn) [N2(S)]
6 | 0.03% | 99.55% | CCOC(=O)OC(C)OC(=O)[C@H]1CCn2c(C(=O)c3ccccc3)ccc21 (stereo partly drawn) [N12(S)]

Same assay, conditions: MCT solution, 5° C., day 0

Row | Ketorolac (%) | Purity (%) | SMILES
7 | 0.16% | 99.14% | CC(C)OC(=O)OC(C)OC(=O)[C@H]1CCn2c(C(=O)c3ccccc3)ccc21 (stereo partly drawn) [N2(S)]
8 | 0.02% | 99.65% | CCOC(=O)OC(C)OC(=O)[C@H]1CCn2c(C(=O)c3ccccc3)ccc21 (stereo partly drawn) [N12(S)]

Same assay, conditions: MCT solution, 25° C., Day 5

Row | Ketorolac (%) | Purity (%) | SMILES
9 | 0.21% | 99.08% | CC(C)OC(=O)OC(C)OC(=O)[C@H]1CCn2c(C(=O)c3ccccc3)ccc21 (stereo partly drawn) [N2(S)]
10 | 0.03% | 99.59% | CCOC(=O)OC(C)OC(=O)[C@H]1CCn2c(C(=O)c3ccccc3)ccc21 (stereo partly drawn) [N12(S)]

Same assay, conditions: MCT solution, 25° C., Day 15

Row | Ketorolac (%) | Purity (%) | SMILES
11 | 0.17% | 99.13% | CC(C)OC(=O)OC(C)OC(=O)[C@H]1CCn2c(C(=O)c3ccccc3)ccc21 (stereo partly drawn) [N2(S)]
12 | 0.04% | 99.61% | CCOC(=O)OC(C)OC(=O)[C@H]1CCn2c(C(=O)c3ccccc3)ccc21 (stereo partly drawn) [N12(S)]

Same assay, conditions: MCT solution, 25° C., Day 30

Row | Ketorolac (%) | Purity (%) | SMILES
13 | 0.28% | 98.95% | CC(C)OC(=O)OC(C)OC(=O)[C@H]1CCn2c(C(=O)c3ccccc3)ccc21 (stereo partly drawn) [N2(S)]
14 | 0.07% | 99.49% | CCOC(=O)OC(C)OC(=O)[C@H]1CCn2c(C(=O)c3ccccc3)ccc21 (stereo partly drawn) [N12(S)]

Same assay, conditions: MCT solution, 25° C., day 0

Row | Ketorolac (%) | Purity (%) | SMILES
15 | 0.16% | 99.14% | CC(C)OC(=O)OC(C)OC(=O)[C@H]1CCn2c(C(=O)c3ccccc3)ccc21 (stereo partly drawn) [N2(S)]
16 | 0.02% | 99.65% | CCOC(=O)OC(C)OC(=O)[C@H]1CCn2c(C(=O)c3ccccc3)ccc21 (stereo partly drawn) [N12(S)]

Same assay, conditions: MCT solution, 60° C., Day 5

Row | Ketorolac (%) | Purity (%) | SMILES
17 | 0.3% | 98.92% | CC(C)OC(=O)OC(C)OC(=O)[C@H]1CCn2c(C(=O)c3ccccc3)ccc21 (stereo partly drawn) [N2(S)]
18 | 0.09% | 99.53% | CCOC(=O)OC(C)OC(=O)[C@H]1CCn2c(C(=O)c3ccccc3)ccc21 (stereo partly drawn) [N12(S)]

Same assay, conditions: MCT solution, 60° C., Day 15

Row | Ketorolac (%) | Purity (%) | SMILES
19 | 0.49% | 98.67% | CC(C)OC(=O)OC(C)OC(=O)[C@H]1CCn2c(C(=O)c3ccccc3)ccc21 (stereo partly drawn) [N2(S)]
20 | 0.23% | 99.35% | CCOC(=O)OC(C)OC(=O)[C@H]1CCn2c(C(=O)c3ccccc3)ccc21 (stereo partly drawn) [N12(S)]

Same assay, conditions: MCT solution, 60° C., Day 30

Row | Ketorolac (%) | Purity (%) | SMILES
21 | 0.65% | 98.38% | CC(C)OC(=O)OC(C)OC(=O)[C@H]1CCn2c(C(=O)c3ccccc3)ccc21 (stereo partly drawn) [N2(S)]
22 | 0.41% | 99.05% | CCOC(=O)OC(C)OC(=O)[C@H]1CCn2c(C(=O)c3ccccc3)ccc21 (stereo partly drawn) [N12(S)]

Same assay, conditions: MCT solution, 60° C., day 0

Row | Ketorolac (%) | Purity (%) | SMILES
23 | 0.16% | 99.14% | CC(C)OC(=O)OC(C)OC(=O)[C@H]1CCn2c(C(=O)c3ccccc3)ccc21 (stereo partly drawn) [N2(S)]
24 | 0.02% | 99.65% | CCOC(=O)OC(C)OC(=O)[C@H]1CCn2c(C(=O)c3ccccc3)ccc21 (stereo partly drawn) [N12(S)]

Same assay, conditions: dextrorotatory form, MCT solution, 5° C., Day 5

Row | Isomer (%) | SMILES
25 | 5.63% | CC(C)OC(=O)OC(C)OC(=O)[C@H]1CCn2c(C(=O)c3ccccc3)ccc21 (stereo partly drawn) [N2(S)]
26 | 3.05% | CCOC(=O)OC(C)OC(=O)[C@H]1CCn2c(C(=O)c3ccccc3)ccc21 (stereo partly drawn) [N12(S)]

Same assay, conditions: dextrorotatory form, MCT solution, 5° C., Day 15

Row | Isomer (%) | SMILES
27 | 5.87% | CC(C)OC(=O)OC(C)OC(=O)[C@H]1CCn2c(C(=O)c3ccccc3)ccc21 (stereo partly drawn) [N2(S)]
28 | 3.07% | CCOC(=O)OC(C)OC(=O)[C@H]1CCn2c(C(=O)c3ccccc3)ccc21 (stereo partly drawn) [N12(S)]

Same assay, conditions: dextrorotatory form, MCT solution, 5° C., Day 30

Row | Isomer (%) | SMILES
29 | 5.99% | CC(C)OC(=O)OC(C)OC(=O)[C@H]1CCn2c(C(=O)c3ccccc3)ccc21 (stereo partly drawn) [N2(S)]
30 | 3.06% | CCOC(=O)OC(C)OC(=O)[C@H]1CCn2c(C(=O)c3ccccc3)ccc21 (stereo partly drawn) [N12(S)]

Same assay, conditions: dextrorotatory form, MCT solution, 5° C., day 0

Row | Isomer (%) | SMILES
31 | 5.65% | CC(C)OC(=O)OC(C)OC(=O)[C@H]1CCn2c(C(=O)c3ccccc3)ccc21 (stereo partly drawn) [N2(S)]
32 | 3.01% | CCOC(=O)OC(C)OC(=O)[C@H]1CCn2c(C(=O)c3ccccc3)ccc21 (stereo partly drawn) [N12(S)]

Same assay, conditions: dextrorotatory form, MCT solution, 25° C., Day 5

Row | Isomer (%) | SMILES
33 | 5.66% | CC(C)OC(=O)OC(C)OC(=O)[C@H]1CCn2c(C(=O)c3ccccc3)ccc21 (stereo partly drawn) [N2(S)]
34 | 3.04% | CCOC(=O)OC(C)OC(=O)[C@H]1CCn2c(C(=O)c3ccccc3)ccc21 (stereo partly drawn) [N12(S)]

Same assay, conditions: dextrorotatory form, MCT solution, 25° C., Day 15

Row | Isomer (%) | SMILES
35 | 5.86% | CC(C)OC(=O)OC(C)OC(=O)[C@H]1CCn2c(C(=O)c3ccccc3)ccc21 (stereo partly drawn) [N2(S)]
36 | 3.09% | CCOC(=O)OC(C)OC(=O)[C@H]1CCn2c(C(=O)c3ccccc3)ccc21 (stereo partly drawn) [N12(S)]

Same assay, conditions: dextrorotatory form, MCT solution, 25° C., Day 30

Row | Isomer (%) | SMILES
37 | 6.01% | CC(C)OC(=O)OC(C)OC(=O)[C@H]1CCn2c(C(=O)c3ccccc3)ccc21 (stereo partly drawn) [N2(S)]
38 | 3.11% | CCOC(=O)OC(C)OC(=O)[C@H]1CCn2c(C(=O)c3ccccc3)ccc21 (stereo partly drawn) [N12(S)]

Same assay, conditions: dextrorotatory form, MCT solution, 25° C., day 0

Row | Isomer (%) | SMILES
39 | 5.65% | CC(C)OC(=O)OC(C)OC(=O)[C@H]1CCn2c(C(=O)c3ccccc3)ccc21 (stereo partly drawn) [N2(S)]
40 | 3.01% | CCOC(=O)OC(C)OC(=O)[C@H]1CCn2c(C(=O)c3ccccc3)ccc21 (stereo partly drawn) [N12(S)]

Same assay, conditions: dextrorotatory form, MCT solution, 60° C., Day 5

Row | Isomer (%) | SMILES
41 | 5.7% | CC(C)OC(=O)OC(C)OC(=O)[C@H]1CCn2c(C(=O)c3ccccc3)ccc21 (stereo partly drawn) [N2(S)]
42 | 3.12% | CCOC(=O)OC(C)OC(=O)[C@H]1CCn2c(C(=O)c3ccccc3)ccc21 (stereo partly drawn) [N12(S)]

Same assay, conditions: dextrorotatory form, MCT solution, 60° C., Day 15

Row | Isomer (%) | SMILES
43 | 5.89% | CC(C)OC(=O)OC(C)OC(=O)[C@H]1CCn2c(C(=O)c3ccccc3)ccc21 (stereo partly drawn) [N2(S)]
44 | 3.1% | CCOC(=O)OC(C)OC(=O)[C@H]1CCn2c(C(=O)c3ccccc3)ccc21 (stereo partly drawn) [N12(S)]

Same assay, conditions: dextrorotatory form, MCT solution, 60° C., Day 30

Row | Isomer (%) | SMILES
45 | 6.13% | CC(C)OC(=O)OC(C)OC(=O)[C@H]1CCn2c(C(=O)c3ccccc3)ccc21 (stereo partly drawn) [N2(S)]
46 | 3.48% | CCOC(=O)OC(C)OC(=O)[C@H]1CCn2c(C(=O)c3ccccc3)ccc21 (stereo partly drawn) [N12(S)]

Same assay, conditions: dextrorotatory form, MCT solution, 60° C., day 0

Row | Isomer (%) | SMILES
47 | 5.65% | CC(C)OC(=O)OC(C)OC(=O)[C@H]1CCn2c(C(=O)c3ccccc3)ccc21 (stereo partly drawn) [N2(S)]
48 | 3.01% | CCOC(=O)OC(C)OC(=O)[C@H]1CCn2c(C(=O)c3ccccc3)ccc21 (stereo partly drawn) [N12(S)]
